System: phospho-ERK in melanoma derived WM-266-4 cells
Assay: Mechanistic cellular assay for Raf kinase activity (phospho-ERK, Bio-Plex)
Assay type: cell-based
Settings: Homo sapiens, treated 1-2 hr at 37° C., serum free medium, read-out: pERK EC50
Text: (2) Mechanistic Cellular Assay for Raf Kinase Activity
The following method was utilized for quantifying the amount of phospho-ERK in melanoma derived WM-266-4 cells (one allele each of wild type BRaf and mutant BRaf (V600D) as an indicator of Raf kinase activity in cells treated with various kinase inhibitors.
(1) Detached adhered WM-266-4 cells from flask using 0.25% Trypsin. Resuspended cells in growth media (90% RPMI 1640, 10% FBS) and determine cell density.
(2) Seeded cells @ 10,000 cells/well in 96-well (flat bottom) tissue culture plates (36,000 cells/cm^2). Added growth media to a final volume of 200 uL/well and incubated overnight at 37° C.
(1) Prepared compound dilutions (1000× in DMSO) as follows. Starting with a stock of 5 mM compound in DMSO, diluted serially 3-fold in DMSO for a total of eight concentrations (5 mM, 1.67 mM, 0.556 mM, 0.185 mM, 0.062 mM, 0.021 mM, 0.007 mM, 0.002 mM).
(2) Prepared compound-containing media by adding 1 mL treatment media (100% RPMI 1640 without FBS) to 1 μL of compound dilution (from step 3).
(3) Removed plates (from step 2) from incubator. Aspirated media and replace with 150 μL compound-containing media. Incubate for 1-2 hr at 37° C.
(4) Removed plates (from step 5) from incubator and treated each as follows: aspirated compound-containing media and replaced with 300 μL ice-cold 1×PBS, aspirated PBS and replaced with 45 μL lysis buffer (Biorad Bio-Plex lysis buffer containing 0.4% v/v lysis buff. Factor 1, 0.2% v/v lysis buff. Factor 2, and PMSF to 2 mM final concentration), and then placed plate on ice until all plates were treated.
(5) After all plates were processed (step 6), placed plates on an orbital shaker and shook at room temperature for at least 15 min.
(6) Finally, removed plates from shaker, and transfered 40 μL/well of lysate from each to new corresponding 96-well V-bottom plates. At this point, samples may be frozen and stored @−80 C.°.
(1) Thaw (if necessary) plates (from step 8) and added 40 μL of Phospho-Protein Assay Buffer to each 40 μL lysate for a 1:1 dilution.
(2) Prepared phospho-ERK1,2 Bioplex beads by diluting 1:50 with Bioplex Wash Buffer (mixing 49 μL Wash Buffer with 1 μL of phospho-ERK1,2 Bioplex beads for each sample to be analyzed). Protected from light by wrapping tube in aluminum foil and kept at room temperature.
(3) Prepared Filter Plate by adding 100 μL/well Bioplex Wash Buffer and removed by vacuum filtration.
(4) Add 50 μL of bead solution (from step 10) to each well of a prepared Filter Plate (from step 11) and vacuum filter. Wash/filter 2× with 100 μL/well Wash Buffer.
(5) Added 50 μL of each lysate to appropriate well of the Filter Plate (from step 12). For this and all subsequent plate incubation steps, placed plate on an inverted plate cover (reduces background), and wrapped in aluminum foil (to protect from light). Shook overnight at room temperature. Included positive (control lysate) and negative (lysis buffer) controls.
(1) Prepared detection antibody (phospho-ERK1,2 Ab) by diluting 1:25 with Detection Antibody Dilution Buffer Buffer (mixing 24 μL Detection Antibody Dilution Buffer with 1 μL of phospho-ERK1,2 Ab for each sample to be analyzed).
(2) Removed plate (from step 13) from shaker and vacuum filter. Washed/filter plate 3× with 100 μL/well Wash Buffer. Added 25 μL of diluted antibody to each well. Incubated on shaker at RT for 30-45 min.
(3) Prepared streptavidin-PE by diluting 1:100 with Wash Buffer (mixing 49.5 μL Wash Buffer with 0.5 μL of 100× streptavidin-PE for each sample to be analyzed). Protected from light.
(4) Removed plate (from step 15) from shaker and vacuum filter. Washed/filter plate 3× with 100 μL/well Wash Buffer. Add 50 μL of diluted streptavidin-PE solution (from step 16) to each sample well. Incubated on shaker for 10-20 min.
(5) Removed plate from shaker and vacuum filter. Wash/filter plate 3× with 100 μL/well Bead Resuspension Buffer. After last wash resuspended beads in 125 μL Bead Resuspension Buffer. […]

| Compound | EC50 |
| --- | --- |
| C[C@@H](NC(=O)c1cnc2n1CC(=O)N2)c1ncc(C(=O)Nc2cc(C(F)(F)F)c(Cl)cn2)s1 [Example 170] | 100 to 1000 nM |
| C[C@@H](NC(=O)c1cnc2n1CCCCN2)c1ncc(C(=O)Nc2cc(C(F)(F)F)c(Cl)cn2)s1 [Example 171] | ≤ 100 nM |
| C[C@@H](NC(=O)c1cnc2n1CCN2C)c1ncc(C(=O)Nc2cc(C(F)(F)F)c(Cl)cn2)s1 [Example 172] | 100 to 1000 nM |
| C[C@@H](NC(=O)c1cnc2n1CCC(=O)N2)c1ncc(C(=O)Nc2cc(C(F)(F)F)c(Cl)cn2)s1 [Example 173] | ≤ 100 nM |
| CC(NC(=O)c1cc2c(cn1)ncn2C)c1cnc(Nc2cccc(C(F)(F)F)c2)s1 (centres unmarked) [Example 178] | 100 to 1000 nM |
| CC(NC(=O)c1cc2c(cn1)ncn2CCS(C)(=O)=O)c1cnc(Nc2ccc(C(F)(F)F)cc2)s1 (centres unmarked) [Example 184] | 100 to 1000 nM |
| C[C@@H](NC(=O)c1cc2c(cn1)ncn2CCS(C)(=O)=O)c1cnc(Nc2ccc(C(F)(F)F)cc2)cn1 [Example 186] | 100 to 1000 nM |
| CC(NC(=O)c1ncc2ncn(C)c2n1)c1cnc(Nc2ccc(C(F)(F)F)cc2)cn1 (centres unmarked) [Example 191] | 1000 to 10000 nM |
| CCn1cnc2cnc(C(=O)NC(C)c3cnc(Nc4ccc(C(F)(F)F)cc4)cn3)nc21 (centres unmarked) [Example 192] | 100 to 1000 nM |
| CC(NC(=O)c1ccc2cn[nH]c2c1)c1ccc(C(=O)Nc2cccc(C(F)(F)F)c2)s1 (centres unmarked) [Example 194] | 1000 to 10000 nM |
| CC(NC(=O)c1ccc2[nH]ncc2c1)c1ccc(C(=O)Nc2cccc(C(F)(F)F)c2)s1 (centres unmarked) [Example 195] | 1000 to 10000 nM |
| CC(=N)Nc1nc2cnc(C(=O)NC(C)c3cnc(Nc4ccc(C(F)(F)F)cc4)s3)cc2n1C (centres unmarked) [Example 200] | 1000 to 10000 nM |
| CC(NC(=O)c1cc2cn[nH]c2cn1)c1cnc(Nc2ccc(C(F)(F)F)cc2)s1 (centres unmarked) [Example 202] | 1000 to 10000 nM |
| CC(NC(=O)c1cc2cnn(C)c2cn1)c1cnc(Nc2ccc(C(F)(F)F)cc2)s1 (centres unmarked) [Example 204] | 1000 to 10000 nM |
| C[C@@H](NC(=O)c1cc2cn(C)nc2cn1)c1cnc(Nc2ccc(C(F)(F)F)cc2)s1 [Example 205] | ≤ 100 nM |
| CC(NC(=O)c1cc2cn(C)nc2cn1)c1cnc(Nc2ccc(C(F)(F)F)cc2)cn1 (centres unmarked) [Example 206] | 100 to 1000 nM |
| CC(NC(=O)c1cc2scnc2cn1)c1cnc(Nc2ccc(C(F)(F)F)cc2)s1 (centres unmarked) [Example 208] | ≤ 100 nM |
| C[C@@H](NC(=O)c1cnn2cccnc12)c1ncc(C(=O)Nc2cc(C(F)(F)F)c(Cl)cn2)s1 [Example 226] | 100 to 1000 nM |
| CC(NC(=O)c1cc2c(cn1)ncn2C)c1cnc(Nc2ccc(Cl)c(C(F)(F)F)c2)cn1 (centres unmarked) [Example 232] | ≤ 100 nM |

| Compound | EC50 |
| --- | --- |
| CCN1CC(n2cnc3cnc(C(=O)NC(C)c4cnc(Nc5ccc(Cl)c(C(F)(F)F)c5)cn4)cc32)C1 (centres unmarked) [Example 235] | 100 to 1000 nM |
| CC(NC(=O)c1cc2c(cn1)ncn2C)c1cnc(Nc2cnc(C(C)(C)C)nc2)s1 (centres unmarked) [Example 240] | ≤ 100 nM |
| C[C@H](NC(=O)c1cc2c(cn1)ncn2C)c1cnc(Nc2cnc(C(C)(C)C)nc2)s1 [Example 242] | 1000 to 10000 nM |
| CC(NC(=O)c1cc2c(cn1)ncn2C)c1cnc(Nc2ccc(C(F)(F)F)nc2)s1 (centres unmarked) [Example 246] | 100 to 1000 nM |
| CC(NC(=O)c1cc2c(cn1)ncn2C)c1cnc(Nc2ccccc2)s1 (centres unmarked) [Example 247] | 1000 to 10000 nM |
| CC(NC(=O)c1cc2c(cn1)ncn2C)c1cnc(Nc2cccc(Cl)c2)s1 (centres unmarked) [Example 248] | 100 to 1000 nM |
| CC(NC(=O)c1cc2c(cn1)ncn2C)c1cnc(Nc2ccc(Cl)cc2)s1 (centres unmarked) [Example 249] | 100 to 1000 nM |
| CC(NC(=O)c1cc2c(cn1)ncn2C)c1cnc(Nc2ccc(S(=O)(=O)C(F)(F)F)cc2)s1 (centres unmarked) [Example 250] | 100 to 1000 nM |
| CC(NC(=O)c1cc2c(cn1)ncn2C)c1cnc(Nc2cc(C(F)(F)F)ccn2)s1 (centres unmarked) [Example 251] | 1000 to 10000 nM |
| CC(NC(=O)c1cc2c(cn1)ncn2C)c1cnc(Nc2cccc(C(C)(C)C#N)c2)s1 (centres unmarked) [Example 252] | 100 to 1000 nM |
| CC(NC(=O)c1cc2c(cn1)ncn2C)c1cnc(Nc2cccc(C(F)(F)F)n2)s1 (centres unmarked) [Example 253] | 100 to 1000 nM |
| CC(NC(=O)c1cc2c(cn1)ncn2C)c1cnc(Nc2cc(C(F)(F)F)c(Cl)cn2)cn1 (centres unmarked) [Example 254] | 1000 to 10000 nM |
| CC(NC(=O)c1cc2c(cn1)ncn2C)c1cnc(Nc2ccc(Cl)cc2)cn1 (centres unmarked) [Example 255] | 100 to 1000 nM |
| CC(NC(=O)c1cc2c(cn1)ncn2C)c1cnc(Nc2cnc(C(C)(C)C)nc2)cn1 (centres unmarked) [Example 256] | 100 to 1000 nM |
| CC(NC(=O)c1cc2c(cn1)ncn2C)c1cnc(Nc2cccc(C(C)(C)C)c2)s1 (centres unmarked) [Example 257] | ≤ 100 nM |
| CC(NC(=O)c1cc2c(cn1)ncn2C)c1cnc(Nc2ccc(Cl)c(C(F)(F)F)c2)s1 (centres unmarked) [Example 258] | 100 to 1000 nM |
| Cc1nc(C(F)(F)F)ccc1Nc1ncc(C(C)NC(=O)c2cc3c(cn2)ncn3C)s1 (centres unmarked) [Example 259] | 100 to 1000 nM |
| CC(NC(=O)c1cc2c(cn1)ncn2C)c1cnc(Nc2cc(Cl)ncn2)s1 (centres unmarked) [Example 260] | 1000 to 10000 nM |
| CC(NC(=O)c1cc2c(cn1)ncn2C)c1cnc(Nc2ccc(Cl)c(S(=O)(=O)C(F)(F)F)c2)cn1 (centres unmarked) [Example 269] | ≤ 100 nM |

| Compound | EC50 |
| --- | --- |
| CC(NC(=O)c1cc2c(cn1)ncn2C)c1cnc(Nc2cccc(C3(C)CC3)c2)s1 (centres unmarked) [Example 271] | 100 to 1000 nM |
| CC(NC(=O)c1cc2c(cn1)ncn2C)c1cnc(Nc2ccc(C(C)(C)C(F)(F)F)cc2)s1 (centres unmarked) [Example 272] | 100 to 1000 nM |
| CC(NC(=O)c1cc2c(cn1)ncn2C)c1cnc(Nc2cc(C(C)(C)C(F)(F)F)ccc2F)s1 (centres unmarked) [Example 274] | ≤ 100 nM |
| CC(NC(=O)c1cc2c(cn1)ncn2C)c1cnc(Nc2ccc(C(F)(F)F)cc2N(C)C)s1 (centres unmarked) [Example 275] | 100 to 1000 nM |
| CC(NC(=O)c1cc2c(cn1)ncn2C)c1cnc(Nc2ccc(C3(C)CC3)cc2)s1 (centres unmarked) [Example 277] | 100 to 1000 nM |
| CC(NC(=O)c1cc2c(cn1)ncn2C)c1cnc(Nc2cccc(C(C)(C)C(F)(F)F)c2)s1 (centres unmarked) [Example 278] | ≤ 100 nM |
| CC(NC(=O)c1cc2c(cn1)ncn2C)c1cnc(Nc2ccc(C3COC3)cc2)cn1 (centres unmarked) [Example 281] | 1000 to 10000 nM |
| CCn1cnc2cnc(C(=O)NC(C)c3cnc(Nc4ccc(C(F)(F)F)cn4)cn3)cc21 (centres unmarked) [Example 284] | 100 to 1000 nM |
| CCN1CC(n2cnc3cnc(C(=O)NC(C)c4cnc(Nc5cnc(C(C)(C)C)nc5)s4)cc32)C1 (centres unmarked) [Example 288] | 100 to 1000 nM |
| CC(NC(=O)c1cc2c(cn1)nc(N)n2C)c1cnc(Nc2ccc(C(F)(F)F)nc2)s1 (centres unmarked) [Example 293] | 100 to 1000 nM |
| CCN1CC(n2cnc3cnc(C(=O)NC(C)c4cnc(Nc5ccc(C(F)(F)F)nc5)s4)cc32)C1 (centres unmarked) [Example 294] | 100 to 1000 nM |
| CC(NC(=O)c1cn2c(Br)cnc2cn1)c1cnc(Nc2ccc(C(F)(F)F)cc2)s1 (centres unmarked) [Example 297] | ≤ 100 nM |
| CC(NC(=O)c1cn2c(NC(C)(C)CC(C)(C)C)cnc2cn1)c1ncc(Nc2ccc(C(F)(F)F)cc2)s1 (centres unmarked) [Example 301] | 1000 to 10000 nM |
| CC(NC(=O)c1cn2c(N)cnc2cn1)c1ncc(Nc2ccc(C(F)(F)F)cc2)s1 (centres unmarked) [Example 302] | 100 to 1000 nM |
| CCNc1cnc2cnc(C(=O)NC(C)c3ncc(Nc4ccc(C(F)(F)F)cc4)s3)cn12 (centres unmarked) [Example 303] | 100 to 1000 nM |
| CCN(CC)c1cnc2cnc(C(=O)NC(C)c3ncc(Nc4ccc(C(F)(F)F)cc4)s3)cn12 (centres unmarked) [Example 304] | 100 to 1000 nM |
| Cc1nc2cnc(C(=O)NC(C)c3ncc(Nc4ccc(C(F)(F)F)cc4)s3)cn2c1N (centres unmarked) [Example 305] | 100 to 1000 nM |
| CCc1nc2cnc(C(=O)NC(C)c3ncc(Nc4ccc(C(F)(F)F)cc4)s3)cn2c1NC(C)(C)CC(C)(C)C (centres unmarked) [Example 306] | 1000 to 10000 nM |

Reference: US20120040951A1, “HETEROARYL COMPOUNDS USEFUL AS RAF KINASE INHIBITORS” (priority 2008, published 2012)
